Experimental data published in patent US10590128B2, “6,7,8,9-tetrahydro-5H-pyrido[2,3-d]azepine dopamine D3 ligands” (Pfizer Inc., priority 2016, dated 2020).

Tests used:
[1] = target: human dopamine D2 receptor (hD2R) (Homo sapiens, UniProt P14416); experiment: Human D2 receptor binding assay ([^3H]-Spiperone); conditions: CHO cells expressing hD2R, geometric mean of 2-5 determinations unless marked b (single determination)
Procedure: (§1) Human D2 Receptor and Human D3 Receptor Binding Assays:
(§2) These determined ligand and tissue concentrations were utilized in time course studies to determine linearity and equilibrium conditions for binding. […] The hD2R assay buffer contains 50 mM Tris (pH 7.4 @ 37° C.), 100 mM NaCl and 1 mM MgCl2. The hD3R assay buffer consists of 50 mM Tris (pH 7.4 at 37° C.), 120 mM NaCl, 5 mM MgCl2, 5 mM KCl and 2 mM CaCl2. Competitive binding experiments were initiated by the addition of 200 μL of the respective cell homogenate to 96-well plates containing […] test drugs (10 concentrations using ½ log dilutions) and 50 μL of ^3H-radioligand for a final volume of 250 μL. Non-specific binding was determined by radioligand binding in the presence of a saturating concentration of Haldol (10 μM). After the 20 minute incubation at 37° C., assay samples were rapidly filtered through Unifilter-96 GF/B PEI-coated filter plates and rinsed with ice-cold 50 mM Tris buffer (pH 7.4 at 4° C.). […] The IC50 value (concentration at which 50% inhibition of specific binding occurs) was calculated by linear regression of the concentration-response data in ActivityBase. Ki values were then calculated according to the Cheng-Prusoff equation:
(§3) [formula] where [L]=concentration of free radioligand and Kd=dissociation constant of radioligand for D3 receptor or D2 receptor.

[2] = target: human dopamine D3 receptor (hD3R) (Homo sapiens, UniProt P35462); experiment: Human D3 receptor binding assay ([^3H]-7-OH-DPAT); conditions: CHO cells expressing hD3R, geometric mean of 2-5 determinations unless marked b (single determination), read-out: hD3 in CHO cells Ki
Procedure: as §1, §2, §3

Chain of human dopamine D2 receptor (hD2R) (P14416 whole entry): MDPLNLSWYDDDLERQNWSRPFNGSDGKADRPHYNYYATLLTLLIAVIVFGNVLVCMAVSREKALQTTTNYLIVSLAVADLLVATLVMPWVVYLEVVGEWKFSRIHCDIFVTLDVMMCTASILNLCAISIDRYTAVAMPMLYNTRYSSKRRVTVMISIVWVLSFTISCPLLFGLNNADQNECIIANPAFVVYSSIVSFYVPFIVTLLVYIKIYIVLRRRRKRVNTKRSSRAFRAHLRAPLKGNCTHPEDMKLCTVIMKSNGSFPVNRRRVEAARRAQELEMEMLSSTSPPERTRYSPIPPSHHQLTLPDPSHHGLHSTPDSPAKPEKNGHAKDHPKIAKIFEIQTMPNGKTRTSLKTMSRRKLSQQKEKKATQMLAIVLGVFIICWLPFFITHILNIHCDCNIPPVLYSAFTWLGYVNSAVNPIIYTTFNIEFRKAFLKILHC
Chain of human dopamine D3 receptor (hD3R) (P35462 whole entry): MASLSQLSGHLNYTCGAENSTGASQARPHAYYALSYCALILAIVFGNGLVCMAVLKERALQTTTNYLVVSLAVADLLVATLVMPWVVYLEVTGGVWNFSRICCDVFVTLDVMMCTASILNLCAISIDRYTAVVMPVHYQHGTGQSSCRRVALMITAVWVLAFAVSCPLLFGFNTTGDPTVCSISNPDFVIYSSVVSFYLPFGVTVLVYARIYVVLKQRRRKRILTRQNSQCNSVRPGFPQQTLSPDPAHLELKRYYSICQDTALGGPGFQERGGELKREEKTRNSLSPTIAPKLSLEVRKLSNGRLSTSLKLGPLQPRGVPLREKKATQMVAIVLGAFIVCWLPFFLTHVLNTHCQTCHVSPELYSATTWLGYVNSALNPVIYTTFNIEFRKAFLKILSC

Compound	Ki [1]	Ki [2]
COc1nc2c(cc1NS(=O)(=O)c1ccc(OC3CCOC3)cc1)CCN(C)CC2 (stereo not drawn) [Example 82, N-(2-methoxy-7-methyl-6,7,8,9-tetrahydro-5H-pyrido[2,3-d]azepin-3-yl)-4-(tetrahydrofuran-3-yloxy)benzenesulfonamide]	0.342 µM	0.00437 µM
CCO[C@H]1C[C@@H](c2ccc(S(=O)(=O)Nc3cc4c(nc3OC)CCN(C)CC4)cc2)C1 [Example 21, 4-(cis-3-ethoxycyclobutyl)-N-(2-methoxy-7-methyl-6,7,8,9-tetrahydro-5H-pyrido[2,3-d]azepin-3-yl)benzenesulfonamide]	0.0255 µM	0.000967 µM
CCN1CCc2cc(NS(=O)(=O)c3ccc([C@]4(O)C[C@@H](OC)C4)nc3)c(OC)nc2CC1 [Example 23, N-(7-ethyl-2-methoxy-6,7,8,9-tetrahydro-5H-pyrido[2,3-d]azepin-3-yl)-6-(cis-1-hydroxy-3-methoxycyclobutyl)pyridine-3-sulfonamide]	> 4.6 µM	> 0.459 µM
CCN1CCc2cc(NS(=O)(=O)c3ccc(OC(F)F)cc3)c(OC)nc2CC1 [Example 59, 4-(difluoromethoxy)-N-(7-ethyl-2-methoxy-6,7,8,9-tetrahydro-5H-pyrido[2,3-d]azepin-3-yl)benzenesulfonamide]	2.31 µM	0.0116 µM
COc1nc2c(cc1NS(=O)(=O)c1ccc([C@H]3CC[C@H](OC)CC3)cc1)CCN(C)CC2 [Example 38, 4-(trans-4-methoxycyclohexyl)-N-(2-methoxy-7-methyl-6,7,8,9-tetrahydro-5H-pyrido[2,3-d]azepin-3-yl)benzenesulfonamide]	0.339 µM	0.00293 µM
CCN1CCc2cc(NS(=O)(=O)c3ccc([C@H]4C[C@H](OC)C4)cc3)c(OC)nc2CC1 [Example 68, N-(7-ethyl-2-methoxy-6,7,8,9-tetrahydro-5H-pyrido[2,3-d]azepin-3-yl)-4-(trans-3-methoxycyclobutyl)benzenesulfonamide]	0.338 µM	0.00126 µM
COc1nc2c(cc1NS(=O)(=O)c1ccc(C)cc1)CCN(CCCF)CC2 [Example 115, N-[7-(3-fluoropropyl)-2-methoxy-6,7,8,9-tetrahydro-5H-pyrido[2,3-d]azepin-3-yl]-4-methylbenzenesulfonamide]	0.213 µM	0.0148 µM
COc1nc2c(cc1NS(=O)(=O)c1cnc(C3CCC3)c(F)c1)CCN(C)CC2 [Example 24, 6-cyclobutyl-5-fluoro-N-(2-methoxy-7-methyl-6,7,8,9-tetrahydro-5H-pyrido[2,3-d]azepin-3-yl)pyridine-3-sulfonamide]	0.232 µM	0.0042 µM
COc1nc2c(cc1NS(=O)(=O)c1ccc(C3CCC3)nc1)CCN(C)CC2 [Example 113, 6-cyclobutyl-N-(2-methoxy-7-methyl-6,7,8,9-tetrahydro-5H-pyrido[2,3-d]azepin-3-yl)pyridine-3-sulfonamide]	0.143 µM	0.00394 µM
CCO[C@H]1C[C@@H](c2ccc(S(=O)(=O)Nc3cc4c(nc3OC)CCN(C)CC4)cn2)C1 [Example 135, 6-(cis-3-ethoxycyclobutyl)-N-(2-methoxy-7-methyl-6,7,8,9-tetrahydro-5H-pyrido[2,3-d]azepin-3-yl)pyridine-3-sulfonamide]	> 3.14 µM	0.0236 µM
CCN1CCc2cc(NS(=O)(=O)c3ccc(C)cc3C)c(OC)nc2CC1 [Example 65, N-(7-ethyl-2-methoxy-6,7,8,9-tetrahydro-5H-pyrido[2,3-d]azepin-3-yl)-2,4-dimethylbenzenesulfonamide]	0.276 µM	0.00154 µM
COc1nc2c(cc1NS(=O)(=O)c1ccc3c(c1)CC(C)(C)O3)CCN(C)CC2 [Example 34, N-(2-methoxy-7-methyl-6,7,8,9-tetrahydro-5H-pyrido[2,3-d]azepin-3-yl)-2,2-dimethyl-2,3-dihydro-1-benzofuran-5-sulfonamide]	0.0263 µM	0.00065 µM
COc1nc2c(cc1NS(=O)(=O)c1ccc(C3(C)CCOCC3)cc1)CCN(C)CC2 [Example 79, N-(2-methoxy-7-methyl-6,7,8,9-tetrahydro-5H-pyrido[2,3-d]azepin-3-yl)-4-(4-methyltetrahydro-2H-pyran-4-yl)benzenesulfonamide]	0.403 µM	0.00367 µM
CCN1CCc2cc(NS(=O)(=O)c3ccc4c(c3)CCCO4)c(OC)nc2CC1 [Example 58, N-(7-ethyl-2-methoxy-6,7,8,9-tetrahydro-5H-pyrido[2,3-d]azepin-3-yl)-3,4-dihydro-2H-chromene-6-sulfonamide]	0.76 µM	0.0044 µM
CCN1CCc2cc(NS(=O)(=O)c3ccc4c(c3)CC(C)O4)c(OC)nc2CC1 (stereo not drawn) [Example 67, N-(7-ethyl-2-methoxy-6,7,8,9-tetrahydro-5H-pyrido[2,3-d]azepin-3-yl)-2-methyl-2,3-dihydro-1-benzofuran-5-sulfonamide]	0.66 µM	0.00402 µM
COc1nc2c(cc1NS(=O)(=O)c1ccc(C(F)(F)C3CCCC3)nc1)CCN(C)CC2 [Example 47, 6-[cyclopentyl(difluoro)methyl]-N-(2-methoxy-7-methyl-6,7,8,9-tetrahydro-5H-pyrido[2,3-d]azepin-3-yl)pyridine-3-sulfonamide]	0.176 µM	0.00233 µM
CCN1CCc2cc(NS(=O)(=O)c3ccc(C4CCCCO4)cc3)c(OC)nc2CC1 (single isomer, unassigned) [Example 74]	0.202 µM	0.00258 µM
Cc1ccc(S(=O)(=O)Nc2cc3c(nc2C(F)(F)F)CCN(C)CC3)cc1 [Example 139, 4-methyl-N-[7-methyl-2-(trifluoromethyl)-6,7,8,9-tetrahydro-5H-pyrido[2,3-d]azepin-3-yl]benzenesulfonamide]	> 4.28 µM	0.713 µM
CCO[C@H]1C[C@@](F)(c2ccc(S(=O)(=O)Nc3cc4c(nc3OC)CCN(CC)CC4)cc2)C1 [Example 48, 4-(trans-3-ethoxy-1-fluorocyclobutyl)-N-(7-ethyl-2-methoxy-6,7,8,9-tetrahydro-5H-pyrido[2,3-d]azepin-3-yl)benzenesulfonamide]	0.933 µM	0.00725 µM
COc1nc2c(cc1NS(=O)(=O)c1ccc(C3(F)CCOCC3)cc1)CCN(C)CC2 [Example 80, 4-(4-fluorotetrahydro-2H-pyran-4-yl)-N-(2-methoxy-7-methyl-6,7,8,9-tetrahydro-5H-pyrido[2,3-d]azepin-3-yl)benzenesulfonamide]	0.238 µM	0.00177 µM
COc1nc2c(cc1NS(=O)(=O)c1ccc(C3CCOC(C)C3)cc1)CCN(C)CC2 (single isomer, unassigned) [Example 88]	0.651 µM	0.00684 µM
COc1nc2c(cc1NS(=O)(=O)c1ccc([C@H]3CCCCO3)c(C)c1)CCN(C)CC2 [Example 104, N-(2-methoxy-7-methyl-6,7,8,9-tetrahydro-5H-pyrido[2,3-d]azepin-3-yl)-3-methyl-4-[(2R)-tetrahydro-2H-pyran-2-yl]benzenesulfonamide]	0.00391 µM	0.00039 µM
COc1nc2c(cc1NS(=O)(=O)c1ccc(C3COC3)cc1)CCN(C)CC2 [Example 33, N-(2-methoxy-7-methyl-6,7,8,9-tetrahydro-5H-pyrido[2,3-d]azepin-3-yl)-4-(oxetan-3-yl)benzenesulfonamide]	–	0.00368 µM
